{"source": "patent US7745420B2", "about": "“Methods for increasing in vivo efficacy of oligonucleotides and inhibiting inflammation in mammals” (Topigen Pharmaceutique, Inc., priority 2001, dated 2010)", "key": {"[1]": {"tested_on": "common Beta chain of human GM-CSF, IL-3 and IL-5 receptor", "experiment": "Semi-quantitative RT-PCR of common beta chain mRNA in TF-1 cells treated with antisense", "assay_type": "cell-based", "settings": "TF1 cells; compared with AS107 containing adenosine", "method": "(§1) Experiments were performed to assess whether antisense oligonucleotides described in international application WO 99/66037 (incorporated herein) directed against the common beta sub-unit of the IL-3, IL-5 and GM-CSF receptor, could inhibit the expression and the function of this receptor when modified by replacing adenosine by either 2-amino-2′-deoxyadenosine or inosine. TF-1 and U937 cells express high levels of GM-CSF receptors. In addition, TF-1 cells are dependent on GM-CSF for survival. These cells were cultured in RPMI 1640 supplemented with 10% heat-inactivated fetal calf serum, penicillin, streptomycin and 1-glutamine at 37° C. in 5% CO2 (the TF-1 cells were supplemented with GM-CSF). For 12 hours they were either cultured in medium alone or medium with sense (107S: 5′-ACCAT CCCGCTGCAGACCC-3′ (SEQ ID NO:19) or antisense (107A: 5′-GGGTCTGCAGCGGGATGGT-3′; SEQ ID NO:20) oligonucleotides to the common beta sub-unit of the IL-3, IL-5 and GM-CSF receptor. The sequence for 107A-DAP was: 5′-GGGTCTGCDapGCGGGDapTGGT-3′ (SEQ ID NO:21); the sequence for 107A-inosine (107A-I) was: 5′-GGGTCTGCIGCGGGIT GGT-3′ (SEQ ID NO:22). The cells were retrieved and washed 3 times. RNA was then retrieved and the presence of the beta chain of the receptor was assessed by semi-quantitative RT-PCR."}, "[2]": {"tested_on": "common Beta chain of human GM-CSF, IL-3 and IL-5 receptor", "experiment": "Semi-quantitative RT-PCR of common beta chain mRNA in U937 cells treated with antisense", "assay_type": "cell-based", "settings": "compared with AS107 containing adenosine, G3PDH housekeeping gene", "method": "as §1, with “For 12 hours they were either cultured in medium alone or medium with sense (107S: 5′-ACCAT CCCGCTGCAGACCC-3′ (SEQ ID NO:19) or antisense (107A: 5′-GGGTCTGCAGCGGGATGGT-3′; SEQ ID NO:20) oligonucleotides to the common beta sub-unit of the IL-3, IL-5 and GM-CSF receptor.” left out"}, "[3]": {"tested_on": "human immunodeficiency virus (HIV)", "settings": "Balzarini et al. 1987; cited from earlier work"}, "lungs/airways": {"tested_on": "lungs/airways", "settings": "in vivo; cited from earlier work"}}, "note": "[DAP] = 2,6-diaminopurine base (2-amino-2'-deoxyadenosine) replacing adenine", "data": [{"compound": "5′-GGGTCTGCDapGCGGGDapTGGT-3′ (DNA GGGTCTGCNGCGGGNTGGT; DNA, [DAP] at 9, 15, backbone and methylation of C not given here) [AS107-DAP]", "values": [{"measurement": "blocking mRNA expression of the common Beta chain, semi-quantitative PCR", "setting": "[1]", "value": "at least equally effective"}, {"measurement": "blocking the mRNA for the common Beta chain, semi-quantitative PCR", "setting": "[2]", "value": "at least equally effective"}]}, {"compound": "Nc1nc(N)c2ncn([C@H]3CC[C@@H](CO)O3)c2n1", "note": "[2-amino-2′,3′-dideoxyadenosine]", "values": [{"measurement": "inhibition of HIV replication in vitro", "setting": "[3]", "value": "capable of selectively inhibiting"}]}, {"compound": "OC[C@H]1O[C@@H](n2cnc3c(O)ncnc32)[C@H](O)[C@@H]1O", "note": "[inosine]", "values": [{"measurement": "bronchoconstriction of the lungs/airways compared to adenosine", "setting": "lungs/airways", "value": "does not cause bronchoconstriction"}]}]}
